Assay [1] has as its target Transthyretin (Homo sapiens) (UniProt P02766).
Description: Relative binding affinity to prealbumin was determined from the competition binding assays and is expressed relative to L-T4
For assay [2] the target is unchanged. Description: Concentration at which 50% total binding to prealbumin protein.

For 18 compounds, Binding affinity and Concentration results are on record in ChEMBL document CHEMBL1123169, “Structurally specific binding of halogenated biphenyls to thyroxine transport protein” (J Med Chem, 1986).

Bounds are passed on as bounds.
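For Binding affinity in this document: competition binding to prealbumin, with affinity given relative to L-T4 as the reference ligand.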

Turning to `O=C(O)c1cc(I)c(-c2cc(I)c(O)c(I)c2)c(I)c1`, the Binding affinity in assay [1] worked out at 1150. Besides, the Concentration in assay [2] was 0.87 nM. Compound `c1ccc(-c2ccccc2)cc1` returned a Binding affinity in assay [1] of under 5. Same read-out and setting: in the case of `Oc1c(-c2cc(Cl)c(Cl)c(Cl)c2)cc(Cl)c(Cl)c1Cl` it was 208. Still for that read-out and setting: the result for `Oc1ccc(-c2cc(Cl)c(Cl)c(Cl)c2Cl)cc1` reads 286. In turn, `Clc1cccc(Cl)c1-c1c(Cl)cccc1Cl` came in with a Binding affinity in assay [1] of under 5. The same measure, in the same setting: the result for `N[C@@H](Cc1cc(I)c(Oc2cc(I)c(O)c(I)c2)c(I)c1)C(=O)O` reads 100; that for `Oc1ccc(-c2c(Cl)cc(Cl)cc2Cl)cc1`, 46. Same read-out and setting: in the case of `NC(Cc1cc(I)c(Oc2cc(I)c(O)c(I)c2)c(I)c1)C(=O)O` (configuration not stated) it was 63; in that of `N[C@@H](Cc1cc(I)c(Oc2ccc(O)c(I)c2)c(I)c1)C(=O)O`, 2. On to `Oc1ccc(-c2c(Cl)c(Cl)c(O)c(Cl)c2Cl)cc1`, for which the Binding affinity in assay [1] was 398. The compound further gave a Concentration in assay [2] of 2.5 nM.

In assay [1], `Oc1c(Cl)cc(-c2cc(Cl)c(O)c(Cl)c2)cc1Cl` had a Binding affinity of 661. In addition, in assay [2], the Concentration is 1.5 nM. As for `NC(Cc1ccc(Oc2cc(I)c(O)c(I)c2)c(I)c1)C(=O)O` (configuration not stated), the Binding affinity in assay [1] is 23. For `Oc1c(Cl)cc(-c2ccc(Cl)cc2)cc1Cl`, the Binding affinity in assay [1] worked out at 501. In assay [1], `NC(Cc1cc(I)c(-c2cc(I)c(O)c(I)c2)c(I)c1)C(=O)O` (racemic) registered a Binding affinity of 331. The compound further showed a Concentration in assay [2] of 3 nM. On to `Oc1c(Cl)cc(-c2ccccc2)cc1Cl`, for which the Binding affinity in assay [1] stood at 851. On the same count and under the same terms, the result for `Clc1cc(Cl)cc(-c2cc(Cl)cc(Cl)c2)c1` reads 411; that for `Oc1c(Cl)cc(Cl)cc1-c1ccccc1`, 28; that for `Clc1cc(-c2cc(Cl)c(Cl)c(Cl)c2)cc(Cl)c1Cl`, 313.
